Results taken from patent publication US7605137B2, “Combination therapy comprising cloretazine” (priority 2004, dated 2009).
“Also recorded” adds a separate entry of the source. Like-named read-outs stand apart in the source and are kept apart here.

Legend:
L1210 leukemia [1] = test: In vivo antitumor activity of VNP40101M and AraC on ip L1210 leukemia (1×10^6 cells), survival; parameters: species or system CD2F1 mice; settings: 1×10^6 L1210 cells ip; for Long-term Survivors (%): survival more than 60 days
Experimental: Eighty Female Balb/c×DBA/2 (CD2F1) mice were inoculated intraperitoneally (ip) on day 0 with 1×10^6 L1210 cells in 0.2 mL phosphate-buffered-saline (PBS). The mice were randomly divided into 6 groups; each group consisted of 10 mice. The animals were untreated or treated with a single bolus dose of VNP40101M at 5, or 10 mg/kg, ip, on day 1 with or without AraC (50 mg/kg, ip) on days 1, 3, 5, 7, and 9. Daring the experiments, mice were observed daily for survival. It was determined that mice that survive for more than 60 days after inoculation of L1210 cells might be regarded as long-term survivors. Kaplan-Meier plots were generated, and survival time of animals was analyzed using student T-test. Significance was defined as P<0.05.

L1210 leukemia [2] = test: In vivo antitumor activity of VNP40101M and fludarabine on ip L1210 leukemia (3×10^6 cells), survival; parameters: species or system CD2F1 mice; settings: 3×10^6 L1210 cells ip; for Long-term Survivors (%): survival more than 60 days
Experimental: Eighty Female Balb/c×DBA/2 (CD2F1) mice are inoculated intraperitoneally (ip) on day 0 with 3×10^6 L1210 cells in 0.2 mL phosphate-buffered-saline (PBS). The mice are randomly divided into 6 groups; each group consists of 10 mice. The animals are untreated or treated with a single bolus dose of VNP40101M at 5, or 10 mg/kg, ip, on day 1 with or without fludarabine (70 mg/kg, ip) on multiple days between days 1 to 9. During the experiments, mice are observed daily for survival. It is determined that mice that survive for more than 60 days after inoculation of L1210 cells might be regarded as long-term survivors. Kaplan-Meier plots are generated, and survival time of animals is analyzed using student T-test. Significance is defined as P<0.05.

[3] = system: intra-cranially implanted L1210 leukemia; settings: cited from earlier work
[4] = system: murine M109 lung carcinoma; settings: cited from earlier work
human U251 glioma = settings: 10 mg/kg q2d×11 or 20 mg/kg q4d×6 IP; tumors staged to ~300 mg; cited from earlier work
L1210 leukemia [5] = test: In vitro cytotoxicity of VNP40101M and AraC, cell viability assay (mitochondrial oxidoreductase activity); format: cell-based, murine; settings: AraC and VNP40101M 0.75-6 uM
Experimental: The cytotoxicity of the combination of VNP40101M and Arac on L1210 leukemia was examined using a cell viability assay. Cells were exposed to VNP40101M, alone or in combination with various concentrations of AraC. After 72 hours, the remaining viable cells were quantified by measuring mitochondrial oxidoreductase activity. Concentrations of AraC and VNP40101M used were between 0.75 and 6 uM. Dose-effect analyses (combination index) showing combination effects of VNP40101M and AraC were analyzed.

[6] = cited from earlier work
[7] = system: L1210 leukemia (10^6 tumor cells) resistant to BCNU, cyclophosphamide, or melphalan; settings: cited from earlier work
[8] = cited from earlier work; remark: listed apart in the source
[9] = system: human WiDr colon carcinoma; settings: weekly IP, 10-60 mg/kg; cited from earlier work
[10] = system: human HTB177 lung (H460) carcinoma; settings: weekly IP, 10-60 mg/kg; cited from earlier work
B16F10 melanoma = settings: weekly IP, 10-60 mg/kg; cited from earlier work
[11] = system: advanced hematologic malignancies; settings: cited from earlier work
[12] = cited from earlier work; remark: listed apart in the source
[13] = cited from earlier work; remark: listed apart in the source
[14] = single dose 80-100 mg/kg IP, tumor-bearing mice
[15] = VNP40101M 5 mg/kg ip single bolus day 1
[16] = VNP40101M 10 mg/kg ip single bolus day 1

## Nc1ccn([C@@H]2O[C@H](CO)[C@@H](O)[C@@H]2O)c(=O)n1 [AraC, Cytarabine, reference compound]
L1210 leukemia [1]; AraC 50 mg/kg ip days 1, 3, 5, 7, 9
  Long-term Survivors (%): 0%
L1210 leukemia [1]; AraC treatment control, 50 mg/kg ip days 1, 3, 5, 7, 9
  Time to death of all animals: ≤ 30 days

## Nc1nc(F)nc2c1ncn2[C@@H]1O[C@H](CO)[C@@H](O)[C@@H]1O [Fluda, Fludarabine, reference compound]
L1210 leukemia [2]; fludarabine 70 mg/kg ip multiple days between days 1 to 9
  Long-term Survivors (%): 0%
L1210 leukemia [2]; fludarabine treatment control, 70 mg/kg ip
  Time to death of all animals: ≤ 30 days

## CNC(=O)N(N(CCCl)S(C)(=O)=O)S(C)(=O)=O [VNP40101M, 1,2-Bis(methylsulfonyl)-1-(2-chloroethyl)-2-(methylaminocarbonyl) hydrazine]
[3]; IP administration
  Anti-tumor activity against intra-cranially implanted L1210 leukemia: Substantial anti-tumor activity
[3]; inferred from activity against intra-cranially implanted leukemia
  Crossing the blood brain barrier: good penetration through the blood-brain barrier; also recorded: effective in crossing the blood brain barrier
[3]; leukemia cells implanted intracranially
  Cell kill of leukemia cells implanted intracranially: > 6.54 log cell kill
[4]; 10 mg/kg q2d×10 or 20 mg/kg q4d×5 IP, tumors staged to ~150 mg
  Tumor growth: delayed tumor growth
[4]; 20 mg/kg q4d×5 IP
  Delay of time to reach 1 gram: 14 days
Human U251 glioma
  Tumor response: complete regressions
L1210 leukemia [5]
  Combination effect with AraC on L1210 leukemia: worked synergistically with AraC
[6]; 3 mg/kg (18 mg/m^2) IV d×5, day 15
  Clinical signs or symptoms: no clinical signs or symptoms
[6]; 3 mg/kg IV d×5, day 29
  Rats with lung findings: 2/10
[6]; 3 mg/kg IV d×5
  Microscopic findings (lung): alveolar edema, congestion, alveolar histiocytosis, and vascular thrombi
[6]; 10 mg/kg (60 mg/m^2) d×5, day 15
  Gross necropsy findings: few significant gross necropsy findings
[6]; 10 mg/kg dose group, day 29
  Effects on serum chemistries: decreases in total protein and albumin
[6]; 10 mg/kg d×5, sacrificed on day 29
  Animals with thoracic cavity fluid: approximately 50 % of animals
[6]; 10 mg/kg d×5, sacrificed on days 30/31
  Animals with thoracic cavity fluid: 6/6
[6]; doses as high as 10 mg/kg d×5
  Myelosuppression: not observed
[7]; 6 mg/kg/d IP daily for 6 days (total dose 36 mg/kg)
  Increase in life span compared to control mice: 333%
[7]; 12-18 mg/kg/d IP daily for 6 days (total doses 72-108 mg/kg)
  Cure: 100 % of animals
[7]; d×6 schedule, total doses up to 108 mg/kg
  Delayed toxic deaths: not observed
[7]; non-tumor-bearing mice
  Myelosuppression at doses producing long-term survival: only modestly myelosuppressive
[7]; [14]
  Time of toxic deaths after treatment: > 50 days
  Toxicity of higher single doses: signs of a wasting condition and death in some animals; also recorded: signs of a wasting condition and deaths
[7]; single dose IP 24 hours after tumor inoculation, 20-60 mg/kg (60-180 mg/m^2)
  Cure (survival ≧60 days): 100 % of mice
L1210 leukemia [1]; [15]
  Long-term Survivors (%): 50%
L1210 leukemia [1]; [16]
  Long-term Survivors (%): 90%
[8]; 60 mg/kg, by day 4
  White blood cell count: approximately 25 % of baseline
[8]; 80 mg/kg, by day 4
  White blood cell count: ~15 % of baseline
[8]; 60-80 mg/kg
  WBC recovery: full recovery by day 21
[8]; single IP dose 40 mg/kg (120 mg/m^2)
  White blood cell count: 50 % of baseline
[9]
  Tumor growth: significant delays in tumor growth
[10]
  Tumor growth: significant delays in tumor growth
B16F10 melanoma
  Tumor growth: significant delays in tumor growth
[11]; 220 mg/m^2, heavily pre-treated patient with AML
  Clinical response: substantial clearing of marrow blasts
[11]; 300 mg/m^2 single course, one previously untreated patient with high-risk myelodysplasia
  Clinical response: complete response by day 28
[11]; 532 mg/M^2, patient with AML, by day 28
  Clinical response: reduction in marrow blasts
[11]; 708 mg/m^2, one of seven patients
  Duration of prolonged marrow aplasia: > 80 days
[11]; all dose levels (220-708 mg/m^2)
  Peripheral blood blasts: reduced peripheral blood blasts at least transiently in most patients
[11]; doses ≧400 mg/m2
  Infusion-related reaction: transient infusion-related syndrome
[11]; through the dose of 708 mg/m^2
  Dose-limiting non-hematologic toxicities: no dose-limiting non-hematologic toxicities were observed
[12]; 3-305 mg/m^2
  Dose-limiting non-hematologic toxicities: No dose-limiting non-hematologic toxicities were observed
[12]; IV infusion over 15-30 minutes every 4-6 weeks
  Maximum tolerated dose (MTD): 305 mg/m^2
[12]; MTD 305 mg/m^2
  Platelet nadir: 25 to 33 days
[12]; among seven patients treated at the MTD (305 mg/m^2)
  Patients with grade 3 thrombocytopenia: six
[12]; human, in vivo
  Recovery of hematologic toxicities to ≦ grade 1: 32-45 days
[12]; patients treated at the MTD (305 mg/m^2)
  Patients with ≧grade 2 granulocytopenia: Five
L1210 leukemia [2]; [15]
  Long-term Survivors (%): 0%
L1210 leukemia [2]; [16]
  Long-term Survivors (%): 40%
[13]; 1 mg/kg (20 mg/m^2) IV d×5
  Clinical signs and symptoms: minimal clinical signs and symptoms
[13]; 1 mg/kg IV d×5, recovered to baseline by day 15
  Leukopenia: mild leukopenia on day 8
[13]; 3 mg/kg IV d×5
  Leukopenia: marked leukopenia by day 8
[13]; 3 mg/kg IV d×5, sacrifice on day 8
  Clinical signs: marked clinical signs
[13]; single IV doses 1 and 3 mg/kg, at least 21 days of observation
  Tolerability: well-tolerated
[13]; single IV doses 10 and 30 mg/kg (200 and 600 mg/m^2)
  Clinical signs: marked clinical signs
